By IC50 is commonly meant the concentration that inhibits the measured activity by half. For orientation: Kd means a measure of binding affinity in units of concentration. A high value points to a looser complex.

Test [1] addresses T1, mutant MGL (mut-MGLL 11-313 L179S L186S) (Homo sapiens, UniProt Q99685, L169S/L176S).
T1 construct: purified mutant MGL (mut-MGLL 11-313 L179S L186S)
T1 sequence (Q99685 1-303 L169S/L176S): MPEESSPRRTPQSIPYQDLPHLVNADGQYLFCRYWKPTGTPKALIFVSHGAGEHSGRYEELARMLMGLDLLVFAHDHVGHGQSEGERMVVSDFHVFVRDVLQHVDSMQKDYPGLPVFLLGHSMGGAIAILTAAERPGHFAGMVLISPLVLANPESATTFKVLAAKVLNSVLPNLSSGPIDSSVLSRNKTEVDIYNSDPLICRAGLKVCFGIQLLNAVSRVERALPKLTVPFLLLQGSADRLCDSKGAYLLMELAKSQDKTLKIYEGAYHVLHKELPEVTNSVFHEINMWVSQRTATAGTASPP
The test can be described thus: MGL Enzyme Activity Assay, purified mutant MGL, 4MU-B substrate. It is filed as biochemical. Particulars: mutant MGL 5 nM, 4MU-B 10 μM, 37° C.; read-out: MGL mutant inh IC50. A digest of the protocol:
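Purified mutant MGL (5 nM final) with 10 μM 4MU-B in 20 mM PIPES pH 7.0, 150 mM NaCl, 0.001% Tween 20; compounds 17 to 0.0003 μM final. Fluorescence (ex 335/em 440 nm) followed 5 min at 37 °C; IC50 from fit of fractional activity versus inhibitor concentration.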

The target in test [2] is T2, mutant MGL (Homo sapiens, UniProt Q99685, L169S/L176S).
T2 construct: purified mutant MGL (mut-MGLL 11-313 L179S L186S)
T2 sequence (Q99685 1-303 L169S/L176S): T1 sequence (Q99685 1-303 L169S/L176S)
Put plainly: MGL ThermoFluor Assay - Mutant. Format: binding. Particulars: 0.07 mg/ml mutant MGL, 100 μM ANS, pH 7.0. A digest of the protocol: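 Thermal-shift binding with 0.07 mg/ml L169S/L176S mutant MGL, 100 μM 1,8-ANS, 200 mM NaCl, 0.001% Tween-20, 50 mM PIPES pH 7.0, heated 40–90 °C at 1 °C/min.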
(DSF heats the sample and reads unfolding from a dye or from intrinsic fluorescence.)

For test [3], the target named is T3, wild type MGL (wt-MGLL 6H-11-313) (Homo sapiens, UniProt Q99685).
T3 construct: purified wild type MGL (wt-MGLL 6H-11-313); 6H (hexahistidine) (N)
T3 sequence (Q99685 1-303): T1 sequence (Q99685 1-303 L169S/L176S) with S169L, S176L
The test can be described thus: MGL Enzyme Activity Assay, purified wild type MGL, 4MU-B substrate. The note with it: wild type MGL 5 nM, 4MU-B 10 μM, 37° C.; read-out: MGL wild type inh IC50. Format: biochemical. How it is done: All rate-based assays were performed in black 384-well polypropylene PCR microplates (Abgene) in a total volume of 30 μL. […] Final compound concentrations ranged from 17 to 0.0003 μM.
The IC50 values for the following compounds were determined using Microsoft Office Excel from a fit of the equation to the concentration-response plot of the fractional activity as a function of inhibitor concentration.

Test [4] addresses T4, MGL (Rattus norvegicus, UniProt Q8R431).
T4 construct: one g rat brain was homogenized using a Polytron homogenizer; from tissue; host or cells: rat brain homogenate
T4 sequence (Q8R431 1-303): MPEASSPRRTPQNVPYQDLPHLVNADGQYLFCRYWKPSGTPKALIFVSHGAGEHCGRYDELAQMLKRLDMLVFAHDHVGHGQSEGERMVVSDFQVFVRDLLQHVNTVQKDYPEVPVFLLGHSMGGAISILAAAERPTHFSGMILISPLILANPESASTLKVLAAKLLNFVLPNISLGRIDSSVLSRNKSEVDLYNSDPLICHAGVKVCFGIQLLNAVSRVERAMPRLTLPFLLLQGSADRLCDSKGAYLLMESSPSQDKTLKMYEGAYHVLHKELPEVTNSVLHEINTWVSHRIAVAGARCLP
Put plainly: 2-AG Accumulation Assay in rat brain homogenate. Format: biochemical. Particulars: percent of vehicle; for activity at 1 µM: compound @1 µM, read-out: Rat Brain 2AG % VehCntrl (%) @1 µM; for activity at 10 µM: compound @10 µM, read-out: Rat Brain 2AG % VehCntrl (%) @10 µM.

SMILES strings stand for the structures. Positions count from the first letter of the chain named.

`O=C(NC1CN(C2CN(C(=O)c3sc4cc(C(F)(F)F)ccc4c3Cl)C2)C1)c1nccs1` [Cpd 50, N-(1′-{[3-Chloro-6-(trifluoromethyl)-1-benzothiophen-2-yl]carbonyl}-1,3′-biazetidin-3-yl)-1,3-thiazole-2-carboxamide]: the IC50 in test [1] and in test [3] was less than 5 nM each time. In test [2], this compound came in with a Kd of 0.7 nM. Also, in test [4], the activity at 1 µM amounted to 460%.

Turning to `O=C(c1sc2cc(Br)ccc2c1Cl)N1CC(N2CC(N3Cc4ccccc4C3=O)C2)C1` [Cpd 73, 2-{1′-[(6-Bromo-3-chloro-1-benzothiophen-2-yl)carbonyl]-1,3′-biazetidin-3-yl}-2,3-dihydro-1H-isoindol-1-one], the IC50 in test [1] is 12 nM; in test [3] it was less than 5 nM. Further, binding in test [2] was characterised by a dissociation constant (Kd) of 31.3 nM. Moreover, the activity at 1 µM in test [4] was 295%.

As for `O=C(NC1CN(C2CN(C(=O)c3ccc(-c4ccc(C(F)(F)F)cc4)cc3)C2)C1)c1nccs1` [Cpd 12, N-(1′-{[4′-(Trifluoromethyl)biphenyl-4-yl]carbonyl}-1,3′-biazetidin-3-yl)-1,3-thiazole-2-carboxamide], the concentration for half-maximal inhibition (IC50) is 18 nM in test [1] and less than 5 nM in test [3]. For the same compound, the Kd in test [2] worked out at 51 nM. Moreover, the activity at 1 µM in test [4] was 215%. Further, in test [4], the activity at 10 µM was 557%.

On to `CS(=O)(=O)c1cccc(-c2ccc3sc(C(=O)N4CC(N5CC(N6Cc7ccccc7C6=O)C5)C4)cc3c2)c1` [Cpd 82, 2-[1′-({5-[3-(Methylsulfonyl)phenyl]-1-benzothiophen-2-yl}carbonyl)-1,3′-biazetidin-3-yl]-2,3-dihydro-1H-isoindol-1-one], for which the IC50 in test [1] came out at 22 nM; in test [3] it was 16 nM. The Kd in test [2] was found to be 105 nM. For the same compound, in test [4], the activity at 1 µM was 490%.

`O=C(NC1CN(C2CN(C(=O)c3ccc4c(ccn4-c4ccccc4)c3)C2)C1)c1nccs1` [Cpd 13, N-{1′-[(1-Phenyl-1H-indol-5-yl)carbonyl]-1,3′-biazetidin-3-yl}-1,3-thiazole-2-carboxamide]: the IC50 in test [1] was 19 nM; in test [3] it was less than 5 nM. Moreover, in test [2], the affinity, expressed as Kd, was 50 nM. Also, the activity at 1 µM in test [4] came to 441%.

For `O=C(NC1CN(C2CN(C(=O)c3cc4ccc(C(F)(F)F)cc4s3)C2)C1)c1cscn1` [Cpd 49, N-(1′-{[6-(Trifluoromethyl)-1-benzothiophen-2-yl]carbonyl}-1,3′-biazetidin-3-yl)-1,3-thiazole-4-carboxamide], the IC50 was less than 5 nM in test [1] and 14 nM in test [3]. The compound also gave a Kd in test [2] of 31.9 nM. Moreover, the activity at 1 µM in test [4] amounted to 167%.

In the case of `O=C(NC1CN(C2CN(C(=O)c3ccc(-c4ccc(C(F)(F)F)s4)cc3)C2)C1)c1nccs1` [Cpd 9, N-[1′-({4-[5-(Trifluoromethyl)thiophen-2-yl]phenyl}carbonyl)-1,3′-biazetidin-3-yl]-1,3-thiazole-2-carboxamide], the IC50 in test [1] came out at 13 nM. In test [2], this compound yielded a Kd of 14 nM. Besides, in test [3], the IC50 came to 506 nM. Moreover, in test [4], the activity at 1 µM came to 193% and the activity at 10 µM was determined as 160%.

Consider `CS(=O)(=O)c1cccc(-c2ccc3cc(C(=O)N4CC(N5CC(N6Cc7ccccc7C6=O)C5)C4)sc3c2)c1` [Cpd 72, 2-[1′-({6-[3-(Methylsulfonyl)phenyl]-1-benzothiophen-2-yl}carbonyl)-1,3′-biazetidin-3-yl]-2,3-dihydro-1H-isoindol-1-one], for which the IC50 in test [1] was 9 nM; in test [3], less than 5 nM. The compound further showed a Kd in test [2] of 33.2 nM. The activity at 1 µM in test [4] was 781%.

In the case of `O=C(NC1CN(C2CN(C(=O)c3ccc4nc(-c5ccccc5)sc4c3)C2)C1)c1nccs1` [Cpd 4, N-{1′-[(2-Phenyl-1,3-benzothiazol-6-yl)carbonyl]-1,3′-biazetidin-3-yl}-1,3-thiazole-2-carboxamide], the IC50 in test [1] was determined as 7 nM; in test [3], 13 nM. Besides, the Kd in test [2] stood at 143 nM. In test [4], the activity at 1 µM was 148%.

With `O=C(NC1CN(C2CN(C(=O)c3ccc(-c4ccc(C(F)(F)F)cc4)cc3)C2)C1)c1cscn1` [Cpd 14, N-(1′-{[4′-(Trifluoromethyl)biphenyl-4-yl]carbonyl}-1,3′-biazetidin-3-yl)-1,3-thiazole-4-carboxamide], the IC50 in test [1] came to 27 nM; in test [3] it was 9 nM. In test [2], binding was put at a Kd of 86 nM. In addition, the activity at 1 µM in test [4] was determined as 187%.

On to `O=C(NC1CN(C2CN(C(=O)c3cc4ccc(C(F)(F)F)cc4s3)C2)C1)c1nccs1` [Cpd 7, N-(1′-{[6-(Trifluoromethyl)-1-benzothiophen-2-yl]carbonyl}-1,3′-biazetidin-3-yl)-1,3-thiazole-2-carboxamide], for which the results for the IC50 in test [1] and in test [3] were 10 nM and less than 5 nM, respectively. The same compound yielded a Kd in test [2] of 10 nM. In addition, the activity at 1 µM in test [4] was found to be 243%.

In the case of `O=C(c1sc2cc(-c3ccccc3)ccc2c1Cl)N1CC(N2CC(N3Cc4ccccc4C3=O)C2)C1` [Cpd 68, 2-{1′-[(3-Chloro-6-phenyl-1-benzothiophen-2-yl)carbonyl]-1,3′-biazetidin-3-yl}-2,3-dihydro-1H-isoindol-1-one], the results for the IC50 in test [1] and in test [3] were 6 nM and less than 5 nM, respectively. The Kd in test [2] was determined as 3.3 nM. Also, the activity at 1 µM in test [4] came out at 433%.

As to `O=C(c1sc2cc(-c3ccccc3)ccc2c1-c1ccccc1)N1CC(N2CC(N3Cc4ccccc4C3=O)C2)C1` [Cpd 74, 2-{1′-[(3,6-Diphenyl-1-benzothiophen-2-yl)carbonyl]-1,3′-biazetidin-3-yl}-2,3-dihydro-1H-isoindol-1-one], the half-maximal inhibitory concentration (IC50) in test [1] is 12 nM; in test [3], less than 5 nM. The Kd in test [2] was 1.3 nM. For the same compound, the activity at 1 µM in test [4] worked out at 323%.

As to `O=C(NC1CN(C2CN(C(=O)c3ccc4c(cnn4-c4ccccc4)c3)C2)C1)c1nccs1` [Cpd 52, N-{1′-[(1-Phenyl-1H-indazol-5-yl)carbonyl]-1,3′-biazetidin-3-yl}-1,3-thiazole-2-carboxamide], the IC50 in test [1] and in test [3] was less than 5 nM throughout. In test [2], the dissociation constant (Kd) was determined as 73.4 nM. In test [4], the activity at 1 µM came out at 291%.

`O=C(NC1CN(C2CN(C(=O)c3sc4cc(C(F)(F)F)ccc4c3Cl)C2)C1)c1cscn1` [Cpd 51, N-(1′-{[3-Chloro-6-(trifluoromethyl)-1-benzothiophen-2-yl]carbonyl}-1,3′-biazetidin-3-yl)-1,3-thiazole-4-carboxamide]: the IC50 in test [1] and in test [3] was less than 5 nM throughout. In test [2], the affinity, expressed as Kd, was 2.2 nM. In test [4], the activity at 1 µM worked out at 477%.

The values above are taken from patent US8759333B2, “Di-azetidinyl diamide as monoacylglycerol lipase inhibitors” (Janssen Pharmaceutica, NV, priority 2010, dated 2014).
